According to patent publication US20070185172A1, “Organic compounds” (priority 2004, published 2007):

Assays:
[1] = tested on: TNF-alpha synthesis and release in human macrophage cell line U937; experiment: Inhibition of TNF-alpha synthesis and release in LPS-stimulated differentiated U937 cells; format: cell-based; conditions: U-937, PMA-differentiated U937 cells, 10 ng/ml LPS, 24 hours, TNFα by sandwich ELISA
Protocol: Inhibition of TNF-alpha synthesis and release may be measured by the following assay:
Human macrophage cell line U937 is obtained from American Type Culture Collection (Rockville Md.) and cultured in RPMI 1640 (Gibco UK) supplemented with 10% FCS (Gibco UK). Cell density is adjusted to 4×10^5 cells/ml and the cells are differentiated by adding phorbal myristate acetate (PMA, 20 ng/ml) for 4 hours. The PMA is removed by washing and the adherent cells are incubated for a further 48 hours at 37° C. in a humidified incubator with 5% CO2. Differentiated U937 cells are removed using cell dissociation buffer (Gibco UK) and the cell density is adjusted to 1×10^6 cells/ml. 100 μl of the cell suspension is placed in 96 well culture plates and 50 μl of either medium or compound at the appropriate concentration in dimethylsulfoxide are added. After a preincubation of 20 minutes at 37° C., the cells are stimulated with 10 ng/ml lipopolysaccharide (LPS, Sigma) and the supernatants are harvested after 24 hours of incubation at 37° C. in a humidified incubator with 5% CO2. Concentration of TNFα in the supernatants is determined by sandwich ELISA using two monoclonal antibodies recognising different epitopes of the cytokine (Pharmingen UK). Binding of the second antibody is analysed by stepwise incubation with streptavidin alkaline phosphatase conjugate (Sigma UK) and 4-nitrophenylphosphate disodium salt. Optical density is measured at 405 nm and cytokine concentration calculated based on results from serial diluations of standard recombinant TNFα. Curves are fitted and IC50 values calculated using Origin™ software.

Recombinant human GR = biological target: T1, Recombinant human GR (Homo sapiens, UniProt P04150); experiment: Glucocorticoid receptor binding, fluorescence polarisation with Fluormone-GS1; conditions: Fluormone-GS1 ligand, 1 hr at room temperature, Ki calculated from IC50 using the Cheng-Prussoff equation
T1 construct: purchased Panvera (Madison, Wis., USA); host or cells: baculovirus-infected insect Sf-9 cells
T1 sequence (P04150 1-777): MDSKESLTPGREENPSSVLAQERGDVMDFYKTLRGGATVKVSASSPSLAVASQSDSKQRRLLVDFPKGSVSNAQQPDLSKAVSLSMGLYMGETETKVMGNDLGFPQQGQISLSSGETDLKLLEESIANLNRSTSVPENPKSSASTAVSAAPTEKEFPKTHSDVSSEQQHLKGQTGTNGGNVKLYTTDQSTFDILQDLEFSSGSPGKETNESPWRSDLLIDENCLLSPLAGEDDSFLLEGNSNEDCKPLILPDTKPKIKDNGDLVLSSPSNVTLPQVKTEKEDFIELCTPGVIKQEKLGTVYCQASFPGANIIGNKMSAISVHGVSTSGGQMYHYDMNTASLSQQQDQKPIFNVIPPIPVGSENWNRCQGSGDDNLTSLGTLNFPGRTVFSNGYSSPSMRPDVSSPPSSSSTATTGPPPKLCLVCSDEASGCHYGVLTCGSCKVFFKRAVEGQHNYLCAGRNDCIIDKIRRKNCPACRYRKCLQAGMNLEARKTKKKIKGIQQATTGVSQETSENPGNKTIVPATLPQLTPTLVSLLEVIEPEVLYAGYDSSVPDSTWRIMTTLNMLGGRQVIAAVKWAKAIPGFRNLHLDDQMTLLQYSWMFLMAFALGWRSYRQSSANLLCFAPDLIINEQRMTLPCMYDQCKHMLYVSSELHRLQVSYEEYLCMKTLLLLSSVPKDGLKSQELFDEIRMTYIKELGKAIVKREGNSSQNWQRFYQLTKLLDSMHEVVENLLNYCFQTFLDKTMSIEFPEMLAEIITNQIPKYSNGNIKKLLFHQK
Protocol: Binding to the glucocorticoid receptor may be measured in the following assay:
Recombinant human GR expressed in baculovirus-infected insect Sf-9 cells is obtained from Panvera (Madison, Wis., USA), as is GR assay buffer and the proprietary fluorescent ligand Fluormone™-GS1 (200 nM methanol solution). The assay is conducted in 384 well plates by sequential addition of a serially diluted dimethylsulfoxide solution of test compound in water (2 μl), Fluormone™-GS1 (2.2 nM in GR assay buffer, 10 μl) and GR solution (8.8 nM in GR assay buffer, 10 μl). The assay is incubated in the dark at room temperature for 1 hr, prior to fluorescence polarisation measurement using an analyst multiwell instrument with 485 nm excitation and 530 nm emission filters. The concentration of test compound resulting in half-maximum shift in polarisation gives the IC50. Curves are fitted using Origin™ software and Ki values were calculated using the Cheng-Prussoff equation. Compounds of Examples 1, 2, 3, and 4 have Ki values of 0.5, 1.4, 0.4 and 0.2 nM respectively in this assay.

SMILES	IC50 [1] [nM]	Ki (Recombinant human GR) [nM]
CCCN1C[C@@H]2CC3C4CCC5=CC(=O)C=C[C@]5(C)C4[C@@H](O)C[C@]3(C)[C@]2(C(=O)CO)O1 (stereo partly drawn) [Example 1, (4aR,5S,6aS,6bR,9aS)-5-Hydroxy-6b-(2-hydroxy-acetyl)-4a,6a-dimethyl-8-propyl-4a,4b,5,6,6a,6b,8,9,9a,10,10a,10b,11,12-tetradecahydro-7-oxa-8-pentaleno[2,1-a]phenanthren-2-one]	1.16	0.5
CN1C[C@@H]2CC3C4CCC5=CC(=O)C=C[C@]5(C)C4[C@@H](O)C[C@]3(C)[C@]2(C(=O)CO)O1 (stereo partly drawn) [Example 2, (4aR,5S,6aS,6bR,9aS)-5-Hydroxy-6b-(2-hydroxy-acetyl)-4a,6a,8-trimethyl-4a,4b,5,6,6a,6b, 8,9,9a,10a,10b,11,12-tetradecahydro-7-oxa-8-aza-pentaleno[2,1-a]phenanthren-2-one]	4.95	1.4
CCCCN1C[C@@H]2CC3C4CCC5=CC(=O)C=C[C@]5(C)C4[C@@H](O)C[C@]3(C)[C@]2(C(=O)CO)O1 (stereo partly drawn) [Example 3, (4aR,5S,6aS,6bR,9aS)-8-Butyl-5-hydroxy-6b-(2-hydroxy-acetyl)-4a,6a-dimethyl-4a,4b,5,6,6a,6b,8,9,9a,10,10a,10b,11,12-tetradecahydro-7-oxa-8-aza-pentaleno[2,1-a]phenanthren-2-one]	0.89	0.4
C[C@]12C=CC(=O)C=C1CCC1C2[C@@H](O)C[C@@]2(C)C1C[C@H]1CN(C3CCCCC3)O[C@]12C(=O)CO (stereo partly drawn) [Example 4, (4aR,5S,6aS,6bR,9aS)-8-Cyclohexyl-5-hydroxy-6b-(2-hydroxy-acetyl)-4a,6a-dimethyl-4a,4b, 5,6,6a,6b,8,9,9a,10,10a,10b,11,12-tetradecahydro-7-oxa-8-aza-pentaleno[2,1-a]-phenan-thren-2-one]	3.57	0.2
